Measurements as given in paper PMC4883699 (Bioorganic & medicinal chemistry, 2009).
pIC50: −log10 of the molar value.

Experiments:
[1] = tested on: Mycobacterium intracellulare; test: In vitro antimicrobial activity, M. intracellulare; type: cell-based; conditions: read-out: M. intracellulare IC50
[2] = tested on: African green monkey kidney fibroblast cells (Vero); conditions: cited from earlier work
malaria parasite = conditions: cited from earlier work; for reduction in parasitemia: oral, 2 × 100 μmol/kg; for survival times versus chloroquine or artemisinin treated mice: single dose 50 or 100 μmol/kg
[3] = Cytotoxicity on Vero cells; conditions: African green monkey
in vitro = conditions: African green monkey
[4] = tested on: Plasmodium falciparum (D6 clone, Sierra Leone, chloroquine sensitive); test: In vitro antimalarial activity, chloroquine sensitive D6 clone; type: cell-based; conditions: D6, read-out: P. falciparum (D6 Clone) IC50
[5] = tested on: Plasmodium falciparum (W2 clone, IndoChina, chloroquine resistant); test: In vitro antimalarial activity, chloroquine resistant W2 clone; type: cell-based; conditions: W2, read-out: P. falciparum (W2 Clone) IC50
[6] = tested on: P. berghei (NK-65 strain); test: In vivo antimalarial activity in P. berghei infected mice; design: species or system mice (Swiss Webster); conditions: for apparent toxicity in vivo: oral, 30 mg/kg once daily for three days, mice
[7] = Vero cells (African green monkey kidney fibroblast cells)

Structure (SMILES): O[C@]12C=C(c3nccc4c3[nH]c3ccccc34)[C@@H]3CCN(CCCC/C=C\CC1)C[C@@]31C[C@@H]3/C=C\CCCCN3[C@H]12 [Compound 1, Manzamine A]
- pIC50 [1]: 6.19
- TC50 against Vero cells [2]: 365 nM
- reduction in parasitemia (malaria parasite): 90%
- survival times versus chloroquine or artemisinin treated mice (malaria parasite): significant improvements in survival times
- pIC50 [3]: 6.44

Structure (SMILES): CC(C)(C)CC(=O)Nc1cccc2c1[nH]c1c(C3=C[C@@]4(O)CC/C=C\CCCCN5CC[C@@H]3[C@]3(C[C@@H]6/C=C\CCCCN6[C@H]34)C5)nccc12 [Compound 23, 8-(t-Butyl)-acetamidomanzamine A]
- pIC50 (in vitro): < 6.33

Structure (SMILES): CCN(CC)CCCC(C)Nc1ccnc2cc(Cl)ccc12 (centres unmarked) [Chloroquine]
- pIC50 [4]: 7.30
- pIC50 [5]: 6.32
- suppression of the parasitemia ([6]; chloroquine control, 10 mg/kg, three doses): 100%

Structure (SMILES): CC(C)(C)C(=O)Nc1ccc2[nH]c3c(C4=C[C@@]5(O)CC/C=C\CCCCN6CC[C@@H]4[C@]4(C[C@@H]7/C=C\CCCCN7[C@H]45)C6)nccc3c2c1 [Compound 10, 6-Pivalamidomanzamine A]
- pIC50 [3, 7]: < 6.33

Structure (SMILES): Oc1cccc2c1[nH]c1c(C3=C[C@@]4(O)CC/C=C\CCCCN5CC[C@@H]3[C@]3(C[C@@H]6/C=C\CCCCN6[C@H]34)C5)nccc12 [Compound 2, 8-Hydroxymanzamine A]
- reduction in parasitemia (malaria parasite): 90%
- survival times versus chloroquine or artemisinin treated mice (malaria parasite): significant improvements in survival times

Structure (SMILES): CCCCCC(=O)Nc1ccc2[nH]c3c(C4=C[C@@]5(O)CC/C=C\CCCCN6CC[C@@H]4[C@]4(C[C@@H]7/C=C\CCCCN7[C@H]45)C6)nccc3c2c1 [Compound 11, 6-n-Hexamidomanzamine A]
- pIC50 (in vitro): < 6.33

Structure (SMILES): CCCCCC(=O)Nc1cccc2c1[nH]c1c(C3=C[C@@]4(O)CC/C=C\CCCCN5CC[C@@H]3[C@]3(C[C@@H]6/C=C\CCCCN6[C@H]34)C5)nccc12 [Compound 21, 8-n-Hexamidomanzamine A]
- apparent toxicity in vivo [6]: no apparent toxicity

Structure (SMILES): CCCCC(=O)Nc1cccc2c1[nH]c1c(C3=C[C@@]4(O)CC/C=C\CCCCN5CC[C@@H]3[C@]3(C[C@@H]6/C=C\CCCCN6[C@H]34)C5)nccc12 [Compound 19, 8-n-Pentamidomanzamine A]
- pIC50 (in vitro): < 6.33

Structure (SMILES): CCC(=O)Nc1ccc2[nH]c3c(C4=C[C@@]5(O)CC/C=C\CCCCN6CC[C@@H]4[C@]4(C[C@@H]7/C=C\CCCCN7[C@H]45)C6)nccc3c2c1 [Compound 6, 6-n-Propamidomanzamine A]
- pIC50 [3, 7]: < 6.33

Structure (SMILES): CCCCC(=O)Nc1ccc2[nH]c3c(C4=C[C@@]5(O)CC/C=C\CCCCN6CC[C@@H]4[C@]4(C[C@@H]7/C=C\CCCCN7[C@H]45)C6)nccc3c2c1 [Compound 9, 6-n-Pentamidomanzamine A]
- pIC50 (in vitro): < 6.33

Structure (SMILES): CC(C)(C)CC(=O)Nc1ccc2[nH]c3c(C4=C[C@@]5(O)CC/C=C\CCCCN6CC[C@@H]4[C@]4(C[C@@H]7/C=C\CCCCN7[C@H]45)C6)nccc3c2c1 [Compound 13, 6-(t-Butyl)-acetamidomanzamine A]
- pIC50 [3, 7]: < 6.33

Structure (SMILES): O=C(Nc1cccc2c1[nH]c1c(C3=C[C@@]4(O)CC/C=C\CCCCN5CC[C@@H]3[C@]3(C[C@@H]6/C=C\CCCCN6[C@H]34)C5)nccc12)C1CCCCC1 [Compound 24, 8-Cyclohexamidomanzamine A]
- pIC50 (in vitro): < 6.33

Structure (SMILES): CC(C)C(=O)Nc1ccc2[nH]c3c(C4=C[C@@]5(O)CC/C=C\CCCCN6CC[C@@H]4[C@]4(C[C@@H]7/C=C\CCCCN7[C@H]45)C6)nccc3c2c1 [Compound 8, 6-Isobutamidomanzamine A]
- pIC50 [3]: < 6.33

Structure (SMILES): CC(C)C(=O)Nc1cccc2c1[nH]c1c(C3=C[C@@]4(O)CC/C=C\CCCCN5CC[C@@H]3[C@]3(C[C@@H]6/C=C\CCCCN6[C@H]34)C5)nccc12 [Compound 18, 8-Isobutamidomanzamine A]
- pIC50 [3, 7]: < 6.33

Structure (SMILES): O=C(Nc1ccc2[nH]c3c(C4=C[C@@]5(O)CC/C=C\CCCCN6CC[C@@H]4[C@]4(C[C@@H]7/C=C\CCCCN7[C@H]45)C6)nccc3c2c1)C1CCCCC1 [Compound 14, 6-Cyclohexamidomanzamine A]
- apparent toxicity in vivo [6]: no apparent toxicity
- pIC50 [3]: < 6.33
